According to the supplement of paper PMC10307832:

Key:
Assay in all cases: relative viability (nuclei count vs DMSO), 5 days (fraction); higher = more cells survive
[1] = compound: O=C(O)c1ccc2c(c1)nc(Nc1cccc(Cl)c1)c1ccncc12 [Silmitasertib] + CS(=O)(=O)CCNCc1ccc(-c2ccc3ncnc(Nc4ccc(OCc5cccc(F)c5)c(Cl)c4)c3c2)o1 [Lapatinib] (partner 2 µM)
Method in brief: (§1)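 Relative viability equals treated-well nuclei counts divided by vehicle-well nuclei counts. Counts came from 4× images of lung cancer cell lines grown in 1536-well plates for 5 days after pin-tool dosing on the day after seeding. Dosing used one drug alone or a fixed anchor-drug dose plus five library-drug doses (not always all listed) in √10 steps, and values are medians of duplicate plates.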

[2] = compound: O=C(O)c1ccc2c(c1)nc(Nc1cccc(Cl)c1)c1ccncc12 [Silmitasertib] + CC(=O)Nc1cccc(-n2c(=O)n(C3CC3)c(=O)c3c(Nc4ccc(I)cc4F)n(C)c(=O)c(C)c32)c1 [Trametinib] (partner 0.02 µM)
Method in brief: as §1

[3] = compound: O=C(O)c1ccc2c(c1)nc(Nc1cccc(Cl)c1)c1ccncc12 [Silmitasertib] + CS(=O)(=O)N1CCN(Cc2cc3nc(-c4cccc5[nH]ncc45)nc(N4CCOCC4)c3s2)CC1 [Pictilisib] (partner 1 µM)
Method in brief: as §1

[4] = compound: O=C(O)c1ccc2c(c1)nc(Nc1cccc(Cl)c1)c1ccncc12 [Silmitasertib] + CC(=O)c1c(C)c2cnc(Nc3ccc(N4CCNCC4)cn3)nc2n(C2CCCC2)c1=O [Palbociclib] (partner 0.5 µM)
Method in brief: as §1

[5] = compound: O=C(O)c1ccc2c(c1)nc(Nc1cccc(Cl)c1)c1ccncc12 [Silmitasertib] + CCNC(=O)c1noc(-c2cc(C(C)C)c(O)cc2O)c1-c1ccc(CN2CCOCC2)cc1 [Luminespib] (partner 0.01 µM)
Method in brief: as §1

Cell Line	relative viability ([1]; first compound 0.04 µM)	relative viability ([1]; first compound 0.4 µM)	relative viability ([1]; first compound 1.265 µM)	relative viability ([1]; first compound 4 µM)	relative viability ([2]; first compound 0.04 µM)	relative viability ([2]; first compound 0.4 µM)	relative viability ([2]; first compound 1.265 µM)	relative viability ([2]; first compound 4 µM)	relative viability ([3]; first compound 0.04 µM)	relative viability ([3]; first compound 0.4 µM)	relative viability ([3]; first compound 1.265 µM)	relative viability ([3]; first compound 4 µM)	relative viability ([4]; first compound 0.04 µM)	relative viability ([4]; first compound 0.4 µM)	relative viability ([4]; first compound 1.265 µM)	relative viability ([4]; first compound 4 µM)	relative viability ([5]; first compound 0.04 µM)	relative viability ([5]; first compound 0.4 µM)	relative viability ([5]; first compound 1.265 µM)	relative viability ([5]; first compound 4 µM)
201T	1.04	1.04	1.06	1.14	0.738	0.709	0.804	0.893	0.739	0.665	0.68	0.694	0.353	0.346	0.37	0.387	1.03	1.03	1.12	1.28
A549	1.23	1.08	0.781	0.736	–	–	–	–	0.582	0.566	0.497	0.513	–	–	–	–	–	–	–	–
A-427	1.06	–	1.24	0.573	0.952	0.595	0.785	0.497	0.858	–	0.521	0.238	0.555	0.451	0.583	0.517	1.04	–	1.06	0.656
ABC-1	1.19	0.848	0.58	0.884	–	–	–	–	1.12	0.561	0.303	0.345	1.09	0.86	0.555	0.674	0.889	0.696	0.332	0.312
BEN	0.691	0.637	0.589	0.445	1.14	0.856	1.02	0.968	0.628	0.524	0.493	0.476	0.511	0.394	0.432	0.519	0.484	–	0.623	0.284
CAL-12T	0.776	0.62	0.533	0.464	0.444	0.3	0.394	0.284	0.532	0.394	0.34	0.232	0.408	0.382	0.313	0.194	0.363	0.531	0.278	0.125
COR-L23	1.15	0.792	0.92	0.457	0.737	0.369	0.497	0.456	0.945	0.586	0.636	0.248	0.316	0.251	0.261	0.207	0.716	0.66	0.646	0.678
COR-L 105	0.338	0.312	0.311	0.349	0.491	0.434	0.401	0.478	0.463	0.377	0.46	0.419	0.43	0.426	0.396	0.399	0.709	0.767	0.541	0.447
ChaGo-K-1	–	–	–	–	0.938	0.704	0.821	0.907	1.26	0.59	0.607	0.486	0.995	0.674	0.896	0.929	0.586	0.57	0.566	0.607
